As usually defined, the pIC50 is the IC50 on a negative log10 scale, so that one unit is a factor of ten.

22 compounds from US20090311217A1, “3-SUBSTITUTED-1H-INDOLE COMPOUNDS, THEIR USE AS MTOR KINASE AND PI3 KINASE INHIBITORS, AND THEIR SYNTHESES” (priority 2008, published 2009) can be followed below.

pIC50: −log10 of the molar value. Like-named read-outs stand apart in the source and are kept apart here. A value given as a limit tells only on which side of the number the result lay.

Type in all cases: biochemical
One assay deals with T1, human TOR (Homo sapiens, UniProt P42345).
T1 construct: FLAG
The assay is described as follows: mTOR enzyme assay (DELFIA, His6-S6K substrate). The note with it: read-out: mTOR Kinase Avg. IC50.

The target of a further assay is PI3K-alpha (Homo sapiens, UniProt P42336). The assay is described as follows: PI3K-alpha fluorescence polarization assay. The note with it: read-out: PI3Kα Avg. IC50. (In general: Fluorescence polarisation rises when a labelled molecule tumbles more slowly, as on binding a larger partner.)
The target in another assay is PI3K-gamma (Homo sapiens, UniProt P48736). The assay is described as follows: PI3K-gamma fluorescence polarization assay. The method, boiled down: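 Reactions used 5 ng enzyme with 2.5 μM diC8-PI(4,5)P2 and 25 μM ATP in 5 mM HEPES pH 7, 2.5 mM MgCl2, run 1 h at 25° C. After an EDTA quench (10 mM), 100 nM GST-GRP1 PH domain and 5 nM BODIPY-TMR-IP4 were added and fluorescence polarization was read.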
Chain of PI3K-gamma (P48736 whole entry, species assumed, the tested form may be a part): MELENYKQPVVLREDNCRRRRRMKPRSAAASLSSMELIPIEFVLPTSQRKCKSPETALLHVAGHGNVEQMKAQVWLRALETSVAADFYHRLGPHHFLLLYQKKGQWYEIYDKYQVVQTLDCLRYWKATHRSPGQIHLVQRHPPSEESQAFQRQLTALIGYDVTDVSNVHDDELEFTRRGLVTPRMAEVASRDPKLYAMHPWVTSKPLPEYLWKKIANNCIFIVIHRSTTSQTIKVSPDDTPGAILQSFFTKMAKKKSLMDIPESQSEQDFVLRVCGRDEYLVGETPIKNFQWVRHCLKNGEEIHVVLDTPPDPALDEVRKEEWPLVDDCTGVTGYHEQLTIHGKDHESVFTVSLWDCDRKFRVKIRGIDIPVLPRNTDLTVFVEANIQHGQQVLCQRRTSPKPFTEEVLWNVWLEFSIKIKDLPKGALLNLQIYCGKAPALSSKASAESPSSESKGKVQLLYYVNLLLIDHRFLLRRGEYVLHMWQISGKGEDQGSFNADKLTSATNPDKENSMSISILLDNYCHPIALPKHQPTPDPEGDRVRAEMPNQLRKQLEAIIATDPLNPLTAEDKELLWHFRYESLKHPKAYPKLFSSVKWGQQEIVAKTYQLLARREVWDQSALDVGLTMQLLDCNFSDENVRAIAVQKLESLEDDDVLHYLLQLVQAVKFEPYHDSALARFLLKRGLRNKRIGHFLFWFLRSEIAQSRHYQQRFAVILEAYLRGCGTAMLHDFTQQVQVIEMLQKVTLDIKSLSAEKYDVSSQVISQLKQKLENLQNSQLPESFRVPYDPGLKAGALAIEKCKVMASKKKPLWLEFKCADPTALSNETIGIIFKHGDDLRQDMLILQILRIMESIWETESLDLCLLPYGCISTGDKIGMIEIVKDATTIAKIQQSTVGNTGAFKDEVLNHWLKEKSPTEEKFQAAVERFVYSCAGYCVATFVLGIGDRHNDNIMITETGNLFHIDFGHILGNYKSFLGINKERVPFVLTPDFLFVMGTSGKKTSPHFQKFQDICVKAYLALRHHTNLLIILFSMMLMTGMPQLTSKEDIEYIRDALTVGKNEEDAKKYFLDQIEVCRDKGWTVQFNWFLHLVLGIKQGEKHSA

Chain of PI3K-alpha (P42336 whole entry, species assumed, the tested form may be a part): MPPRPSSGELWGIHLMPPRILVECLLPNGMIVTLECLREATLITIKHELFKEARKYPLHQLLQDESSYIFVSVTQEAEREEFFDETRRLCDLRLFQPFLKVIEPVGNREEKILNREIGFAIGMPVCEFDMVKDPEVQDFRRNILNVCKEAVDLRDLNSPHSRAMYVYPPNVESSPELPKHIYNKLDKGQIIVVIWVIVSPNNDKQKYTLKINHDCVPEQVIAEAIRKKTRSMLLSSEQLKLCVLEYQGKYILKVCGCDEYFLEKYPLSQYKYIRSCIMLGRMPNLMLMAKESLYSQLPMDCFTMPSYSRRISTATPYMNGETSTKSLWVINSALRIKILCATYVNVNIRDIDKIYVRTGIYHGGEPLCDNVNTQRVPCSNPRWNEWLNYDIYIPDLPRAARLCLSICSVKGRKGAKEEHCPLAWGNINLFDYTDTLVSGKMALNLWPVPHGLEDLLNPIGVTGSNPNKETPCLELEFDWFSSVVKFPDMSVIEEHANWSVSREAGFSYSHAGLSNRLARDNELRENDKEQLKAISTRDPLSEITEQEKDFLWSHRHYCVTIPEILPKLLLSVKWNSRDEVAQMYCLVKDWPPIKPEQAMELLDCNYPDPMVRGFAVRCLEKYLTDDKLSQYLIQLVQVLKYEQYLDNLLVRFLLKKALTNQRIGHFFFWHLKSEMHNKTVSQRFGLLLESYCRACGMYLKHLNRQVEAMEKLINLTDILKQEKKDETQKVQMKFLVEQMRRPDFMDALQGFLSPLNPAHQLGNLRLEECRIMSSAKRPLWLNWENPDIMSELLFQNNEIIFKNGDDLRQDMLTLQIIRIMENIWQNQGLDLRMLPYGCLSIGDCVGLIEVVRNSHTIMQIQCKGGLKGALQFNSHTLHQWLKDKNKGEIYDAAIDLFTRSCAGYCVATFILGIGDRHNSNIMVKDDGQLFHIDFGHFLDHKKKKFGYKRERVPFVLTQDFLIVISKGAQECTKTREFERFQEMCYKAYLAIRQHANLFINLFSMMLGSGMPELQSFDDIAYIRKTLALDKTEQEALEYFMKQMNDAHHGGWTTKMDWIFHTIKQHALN
Chain of PI3K-alpha (P27986 whole entry partner, species assumed, the tested form may be a part): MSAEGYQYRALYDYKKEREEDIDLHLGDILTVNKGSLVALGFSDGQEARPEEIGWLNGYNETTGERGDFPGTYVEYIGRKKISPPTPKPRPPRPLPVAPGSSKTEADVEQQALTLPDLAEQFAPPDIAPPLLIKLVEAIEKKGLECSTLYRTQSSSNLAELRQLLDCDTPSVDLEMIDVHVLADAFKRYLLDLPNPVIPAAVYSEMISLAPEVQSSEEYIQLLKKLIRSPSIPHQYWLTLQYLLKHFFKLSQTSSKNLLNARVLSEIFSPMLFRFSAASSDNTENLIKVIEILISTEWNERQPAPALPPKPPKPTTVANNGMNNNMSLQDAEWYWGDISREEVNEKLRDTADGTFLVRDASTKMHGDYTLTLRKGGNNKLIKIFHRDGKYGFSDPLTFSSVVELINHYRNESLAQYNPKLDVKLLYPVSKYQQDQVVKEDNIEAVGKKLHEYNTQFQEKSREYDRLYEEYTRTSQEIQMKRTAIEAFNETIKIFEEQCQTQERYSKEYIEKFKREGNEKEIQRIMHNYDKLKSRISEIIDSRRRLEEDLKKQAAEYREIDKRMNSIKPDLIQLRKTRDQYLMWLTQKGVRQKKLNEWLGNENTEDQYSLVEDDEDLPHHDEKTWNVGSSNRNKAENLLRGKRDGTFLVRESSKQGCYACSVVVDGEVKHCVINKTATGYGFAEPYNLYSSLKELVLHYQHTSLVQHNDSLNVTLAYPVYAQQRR

As to `CNCCNC(=O)c1ccc(NC(=O)Nc2ccc3c(c2)C(=O)/C(=C/c2c(C4CCCCC4)[nH]c4ccc(OC)cc24)O3)cc1` [Compound 660, 4-[({(2Z)-2-[(2-cyclohexyl-5-methoxy-1H-indol-3-yl)methylene]-3-oxo-2,3-dihydro-1-benzofuran-5-yl}carbamoyl)amino]-N-[2-(methylamino)ethyl]benzamide], the pIC50 is 8.40 at human TOR, 9.52 on PI3K-alpha and 8.53 against PI3K-gamma (PI3Kγ Avg. IC50).

Turning to `O=C1C(=Cc2c(-c3ccccc3)n(Cc3ccccc3)c3ccccc23)Oc2cc(O)cc(O)c21` [Example 149, 2-[(1-benzyl-2-phenyl-1H-indol-3-yl)methylene]-4,6-dihydroxy-1-benzofuran-3(2H)-one], the pIC50 at human TOR is 5.21; on PI3K-alpha it was 5.80; at PI3K-gamma (PI3Kγ Avg. IC50), 5.70.

In the case of `CN(C)CCn1c(-c2ccccc2)c(C=C2Oc3cc(O)cc(O)c3C2=O)c2ccccc21` [Example 148, 2-({1-[2-(dimethylamino)ethyl]-2-phenyl-1H-indol-3-yl}methylene)-4,6-dihydroxy-1-benzofuran-3(2H)-one], the negative-log IC50 (pIC50) on human TOR is 6.30; at PI3K-alpha it was 5.57; at PI3K-gamma (PI3Kγ Avg. IC50), 5.33.

With `Cn1cc(/C=C2\Oc3cc(O)cc(O)c3C2=O)c2c(-c3ccc(O)cc3)cccc21` [Example 379, (2Z)-4,6-Dihydroxy-2-{[4-(4-hydroxyphenyl)-1-methyl-1H-indol-3-yl]methylene}-1-benzofuran-3(2H)-one], the pIC50 at human TOR is 7.54; on PI3K-alpha it was 6.25; against PI3K-gamma (PI3Kγ Avg. IC50) it was 5.96.

With `COc1ccc2c(c1)c(/C=C1\Oc3cc(O)c(C)cc3C1=O)c(C)n2CCCN(C)C` [Example 459, (2Z)-2-({1-[3-(Dimethylamino)propyl]-5-methoxy-2-methyl-1H-indol-3-yl}methylene)-6-hydroxy-5-methyl-1-benzofuran-3(2H)-one], the pIC50 on human TOR is < 4.70; on PI3K-alpha, 6.72; at PI3K-gamma (PI3Kγ Avg. IC50), 5.17.

Regarding `COc1ccc2c(c1)c(/C=C1\Oc3cc(O)c(Cl)cc3C1=O)c(C)n2CCCN(C)C` [Example 448, (2Z)-5-Chloro-2-({1-[3-(dimethylamino)propyl]-5-methoxy-2-methyl-1H-indol-3-yl}methylene)-6-hydroxy-1-benzofuran-3(2H)-one], the values for the pIC50 on human TOR, at PI3K-alpha and against PI3K-gamma (PI3Kγ Avg. IC50) were < 4.70, 6.85 and 5.29, respectively.

As for `O=C1C(=Cc2c(-c3cccc(F)c3)[nH]c3ccccc23)Oc2cc(O)cc(O)c21` [Example 210, 2-{[2-(3-fluorophenyl)-1H-indol-3-yl]methylene}-4,6-dihydroxy-1-benzofuran-3(2H)-one], the figures for the negative logarithm of the IC50 (pIC50) at human TOR, at PI3K-alpha and at PI3K-gamma (PI3Kγ Avg. IC50) were 6.72, 6.17 and 5.83, respectively.

`O=C1C(=Cc2c(-c3cccc(O)c3)[nH]c3ccccc23)Oc2cc(O)cc(O)c21` [Example 205, 4,6-dihydroxy-2-{[2-(3-hydroxyphenyl)-1H-indol-3-yl]methylene}-1-benzofuran-3(2H)-one]: the pIC50 is 6.96 at human TOR, 6.32 at PI3K-alpha and 5.62 at PI3K-gamma (PI3Kγ Avg. IC50).

With `COc1ccc2[nH]c(-c3c(C)nn(C)c3C)c(/C=C3\Oc4ccc(NC(=O)Nc5ccc(C(=O)N6CCN(C(C)C)CC6)cc5)cc4C3=O)c2c1` [Compound 700, 1-[(2Z)-2-{[5-methoxy-2-(1,3,5-trimethyl-1H-pyrazol-4-yl)-1H-indol-3-yl]methylidene}-3-oxo-2,3-dihydro-1-benzofuran-5-yl]-3-(4-{[4-(1-methylethyl)piperazin-1-yl]carbonyl}phenyl)urea], the pIC50 at human TOR is 8.70; at PI3K-alpha, 9.40; against PI3K-gamma (PI3Kγ Avg. IC50), 8.52.

With `Cn1cc(/C=C2\Oc3cc(O)ccc3C2=O)c2c(-c3ccccc3)cccc21` [Example 443, (2Z)-6-Hydroxy-2-((1-methyl-4-phenyl-1H-indol-3-yl)methylene)benzofuran-3(2H)-one], the negative logarithm of the IC50 (pIC50) was 5.91 at human TOR, < 5.29 on PI3K-alpha and < 5.29 at PI3K-gamma (PI3Kγ Avg. IC50).

With `COc1ccc2c(c1)c(/C=C1\Oc3cc(O)cc(O)c3C1=O)cn2CCn1ccnc1` [Example 312, (2Z)-4,6-Dihydroxy-2-({1-[2-(1H-imidazol-1-yl)ethyl]-5-methoxy-1H-indol-3-yl}methylene)-1-benzofuran-3(2H)-one], the negative logarithm of the IC50 (pIC50) at human TOR is 6.82; on PI3K-alpha, 8.02; against PI3K-gamma (PI3Kγ Avg. IC50), 7.09.

Take `CNC(=O)Nc1ccc2c(c1)C(=O)/C(=C/c1c(-c3c(C)nn(C)c3C)n(CCN3CCN(C)CC3)c3ccc(OC)cc13)O2` [Compound 646, 1-[(2Z)-2-({5-methoxy-1-[2-(4-methylpiperazin-1-yl)ethyl]-2-(1,3,5-trimethyl-1H-pyrazol-4-yl)-1H-indol-3-yl}methylene)-3-oxo-2,3-dihydro-1-benzofuran-5-yl]-3-methylurea]: the pIC50 on human TOR is 7.89; at PI3K-alpha, 8.60; against PI3K-gamma (PI3Kγ Avg. IC50), 7.17.

For `COc1ccc2c(c1)c(/C=C1\Oc3ccc(NC(=O)Nc4cccnc4)cc3C1=O)c(C)n2CCN1CCN(C)CC1` [Compound 632, 1-[(2Z)-2-({5-methoxy-2-methyl-1-[2-(4-methylpiperazin-1-yl)ethyl]-1H-indol-3-yl}methylidene)-3-oxo-2,3-dihydro-1-benzofuran-5-yl]-3-pyridin-3-ylurea], the pIC50 on human TOR is 7.31; at PI3K-alpha, 8.72; on PI3K-gamma (read-out: PI3Kγ Avg. IC50) it was 6.61.

On to `COc1ccc2c(c1)c(/C=C1\Oc3c(ccc(O)c3F)C1=O)c(C)n2CCN1CCN(C)CC1` [Example 457, (2Z)-7-Fluoro-6-hydroxy-2-({5-methoxy-2-methyl-1-[2-(4-methylpiperazin-1-yl)ethyl]-1H-indol-3-yl}methylene)-1-benzofuran-3(2H)-one], for which the pIC50 is < 4.70 at human TOR, 7.13 at PI3K-alpha and 5.30 at PI3K-gamma (PI3Kγ Avg. IC50).

`COc1ccc2[nH]c(-c3c(C)nn(C)c3C)c(/C=C3\Oc4ccc(NC(=O)Nc5ccc(C(=O)N(C)C6CCN(C)C6)cc5)cc4C3=O)c2c1` (stereo not drawn) [Compound 698, 4-({[(2Z)-2-{[5-methoxy-2-(1,3,5-trimethyl-1H-pyrazol-4-yl)-1H-indol-3-yl]methylidene}-3-oxo-2,3-dihydro-1-benzofuran-5-yl]carbamoyl}amino)-N-methyl-N-(1-methylpyrrolidin-3-yl)benzamide]: the pIC50 was 9.00 on human TOR, 9.52 on PI3K-alpha and 8.52 on PI3K-gamma (PI3Kγ Avg. IC50).

Turning to `COc1cc(F)c2[nH]c(-c3c(C)nn(C)c3C)c(/C=C3\Oc4ccc(NC(=O)NCCN)cc4C3=O)c2c1` [Compound 715, 1-(2-aminoethyl)-3-[(2Z)-2-{[7-fluoro-5-methoxy-2-(1,3,5-trimethyl-1H-pyrazol-4-yl)-1H-indol-3-yl]methylidene}-3-oxo-2,3-dihydro-1-benzofuran-5-yl]urea], the pIC50 on human TOR was 9.00; at PI3K-alpha, 9.30; against PI3K-gamma (PI3Kγ Avg. IC50), 8.59.

As to `CNC(=O)c1ccc(-c2cccc3c2c(/C=C2\Oc4cc(O)cc(O)c4C2=O)cn3C)cc1` [Example 392, 4-{3-[(Z)-(4,6-dihydroxy-3-oxo-1-benzofuran-2(3H)-ylidene)methyl]-1-methyl-1H-indol-4-yl}-N-methylbenzamide], the pIC50 at human TOR is 7.77; at PI3K-alpha, 6.34; against PI3K-gamma (PI3Kγ Avg. IC50) it was < 5.14.

`COCCn1c(-c2ccccc2)c(C=C2Oc3cc(O)cc(O)c3C2=O)c2ccccc21` [Example 151, 4,6-dihydroxy-2-{[1-(2-methoxyethyl)-2-phenyl-1H-indol-3-yl]methylene}-1-benzofuran-3(2H)-one]: the figures for the pIC50 at human TOR, at PI3K-alpha and against PI3K-gamma (PI3Kγ Avg. IC50) were 6.15, 5.68 and 5.37, respectively.

As for `CCn1cc(/C=C2\Oc3ccc(NC(=O)Nc4ccc(C(=O)N5CCN(C)CC5)cc4)cc3C2=O)c2cc(OC)ccc21` [Compound 642, 1-{(2Z)-2-[(1-ethyl-5-methoxy-1H-indol-3-yl)methylene]-3-oxo-2,3-dihydro-1-benzofuran-5-yl}-3-{4-[(4-methylpiperazin-1-yl)carbonyl]phenyl}urea], the pIC50 was 5.59 at human TOR, 9.02 at PI3K-alpha and 8.10 against PI3K-gamma (PI3Kγ Avg. IC50).

Turning to `O=C1C(=Cc2c[nH]c3ccc(I)cc23)Oc2cc(O)cc(O)c21` [Example 177, 4,6-dihydroxy-2-[(5-iodo-1H-indol-3-yl)methylene]-1-benzofuran-3(2H)-one], the pIC50 at human TOR is 5.04; at PI3K-alpha it was 6.73; against PI3K-gamma (PI3Kγ Avg. IC50) it was 5.47.

Regarding `CCN1CCN(C(=O)c2ccc(NC(=O)Nc3ccc4c(c3)C(=O)/C(=C/c3c(-c5c(C)nn(C)c5C)[nH]c5ccc(OC)cc35)O4)cc2)CC1` [Compound 699, 1-{4-[(4-ethylpiperazin-1-yl)carbonyl]phenyl}-3-[(2Z)-2-{[5-methoxy-2-(1,3,5-trimethyl-1H-pyrazol-4-yl)-1H-indol-3-yl]methylidene}-3-oxo-2,3-dihydro-1-benzofuran-5-yl]urea], the negative logarithm of the IC50 (pIC50) on human TOR is 8.30; on PI3K-alpha, 9.40; against PI3K-gamma (PI3Kγ Avg. IC50) it was 8.52.

For the compound `COc1ccc2[nH]c(-c3c(C)nn(C)c3C)c(/C=C3\Oc4ccc(NC(=O)Nc5ccc(C(=O)N6CCN(C)C(C)C6)cc5)cc4C3=O)c2c1` (stereo not drawn) [Compound 703, 1-{4-[(3,4-dimethylpiperazin-1-yl)carbonyl]phenyl}-3-[(2Z)-2-{[5-methoxy-2-(1,3,5-trimethyl-1H-pyrazol-4-yl)-1H-indol-3-yl]methylidene}-3-oxo-2,3-dihydro-1-benzofuran-5-yl]urea], the pIC50 at human TOR was 8.52; at PI3K-alpha it was 9.52; against PI3K-gamma (PI3Kγ Avg. IC50) it was 8.60.
